Values joined by “and” are separate entries in the source; they are usually repeats but may differ in a detail not shown here. Equal entries are not always repeated. Ends that are not written are not given here. Peptide text beside a SMILES is read from it.
Legend:
[1] = tested on: Staphylococcus aureus CVCC 546; experiment: microbe, parasite or virus in culture; type: cell-based
Description: (§1) The minimal inhibitory concentration (MIC) was evaluated by a microtiter plate assay ([Wiegand et al., 2008]). Serial 2-fold dilutions of test peptides were placed into a 96-well plate containing identical bacterial inoculum and incubated at 37°C for 16∼20 h. Vancomycin was used as antibiotic control. The MIC value was defined as the lowest peptide concentration where no visible growth occurred. All tests were made in triplicate.

[2] = tested on: S. epidermidis ATCC 12228; experiment: MIC, microtiter plate assay; type: cell-based, Staphylococcus epidermidis; settings: Staphylococcus epidermidis, ATCC12228, 37°C, 16∼20 h, triplicate
Description: as §1

S. suis CVCC 3928 = experiment: MIC, microtiter plate assay; type: cell-based, Streptococcus suis; settings: Streptococcus suis, CVCC3928, 37°C, 16∼20 h, triplicate
Description: as §1

[3] = tested on: Escherichia coli ATCC 25922; experiment: MIC, microtiter plate assay; type: cell-based; settings: Escherichia coli, ATCC25922, 37°C, 16∼20 h, triplicate
Description: as §1

[4] = tested on: Salmonella pullorum CVCC 533; experiment: MIC, microtiter plate assay; type: cell-based; settings: Salmonella enterica, PULLORUM, 37°C, 16∼20 h, triplicate
Description: as §1

[5] = tested on: Streptococcus pneumoniae CVCC 2350; experiment: MIC, microtiter plate assay; type: cell-based; settings: Streptococcus pneumoniae, CVCC2350, 37°C, 16∼20 h, triplicate
Description: as §1

E. coli K88 = experiment: MIC, microtiter plate assay; type: cell-based, Escherichia coli; settings: Escherichia coli, K88, 37°C, 16∼20 h, triplicate
Description: as §1

S. enteritidis CVCC 3377 = experiment: MIC, microtiter plate assay; type: cell-based, Salmonella enteritidis; settings: Salmonella enterica, ENTERITIDIS, 37°C, 16∼20 h, triplicate
Description: as §1

mouse erythrocytes = experiment: Hemolytic activity; type: cell-based; settings: 128 μg/mL, 8% (v/v) mouse erythrocytes in PBS, 1 h, 37°C, absorbance 576 nm, n = 3
Description: Hemolytic activity of peptides was evaluated with fresh mouse erythrocytes. Briefly, fresh mouse erythrocytes were collected, washed, and resuspended to a concentration of 8% (v/v) in PBS. Then, an aliquot of erythrocyte solution was added to 96-well plates containing an equal volume of peptide solution (1∼256 μg/mL) and was incubated for 1 h at 37°C. The erythrocyte suspension treated with 0.1% Triton X-100 and left untreated was employed as positive and negative controls, respectively. After centrifugation at 2000 rpm for 5 min, the supernatant was measured using a microplate reader at 576 nm. The percent hemolysis was calculated using the following formula: Percenthemolysis = [(A − A0)/(A100 − A0)] × 100%, where A, A100, and A0 represent the absorbance of the peptide sample and positive and negative controls, respectively.

[6] = tested on: mouse macrophage RAW 264.7; experiment: Cytotoxicity, MTT assay; type: cell-based; settings: 256 μg/mL, RAW 264.7, MTT, n = 4
Description: The cytotoxicity of peptides toward mouse macrophage RAW 264.7 was evaluated by the MTT assay as described previously ([Wang X. et al., 2018]).

S. aureus CVCC 546 [7] = experiment: Membrane permeabilization, PI flow cytometry; type: cell-based, Staphylococcus aureus; settings: 2 × MIC, 0.5 h, 10^8 CFU/mL, n = 3
Description: The effects of peptides on membrane permeabilization were measured by flow cytometry ([Zhu et al., 2018]). […] Cells untreated and treated with 2 × MIC DLP4 or vancomycin were used as blank and positive controls. The fluorescence of the dye was monitored at an excitation wavelength of 488 nm and an emission wavelength of 635 nm.

S. aureus CVCC 546 [8] = experiment: Time-kill assay; type: cell-based, Staphylococcus aureus; settings: 2 × MIC, MHB, 10^5 CFU/mL, 37°C, n = 3
Source text: Time-kill assay was used to assess the killing rates of S. aureus cells by AMPs in vitro, done by measuring the number of viable bacteria left at various times after exposure to the peptides. […] At different time intervals, a certain sample was taken, serially diluted, and plated on MHA for colonies counting. Cells treated with 2 × MIC DLP4 or vancomycin and left without treatment were used as the positive and blank controls, respectively ([Flamm et al., 2019]).

S. aureus CVCC 546 [9] = experiment: Post-antibiotic effect (PAE); type: cell-based, Staphylococcus aureus; settings: 2 × MIC, 2 h exposure, mean ± SD, n = 3
Description: The PAE was determined by exposing S. aureus cells to antimicrobial agent at 1×, 2×, or 4 × MIC for 2 h. After drug removal by dilution, the bacterial culture was incubated at 37°C and 250 rpm. An aliquot of samples (50 μL) were taken for CFU counts at different time intervals until bacterial cultures became turbid. Bacteria treated with DLP4 or vancomycin and left without treatment were used as the positive and blank controls, respectively. The PAE was calculated using the following formula: PAE = T − C, where T is the time for the CFU counts to increase by 10-fold above the count observed immediately after drug removal, and C is the corresponding time for the untreated control ([Oh et al., 2019]).

S. aureus CVCC 546 [10] = experiment: Mouse thigh infection model, CFU in thigh muscle; type: in vivo, mouse (female CD-1); settings: 10 mg/kg single i.p. dose 2 h post-infection, read 24 h post-infection, n = 6
Description: (§2) Mouse experiments were carried out at Gene Engineering Laboratory, Feed Research Institute of Chinese Academy of Agricultural Sciences (CAAS) and complied with institutional animal care and use policies and procedures (AEC-CAAS-20090609). All animal studies were performed with female CD-1 mice, 6∼7 weeks old.
(§3) S. aureus CVCC 546 in the exponential phase were resuspended in MHB and adjusted to 1 × 10^8 CFU/mL, a 0.1-mL inoculum was injected into the right thighs of mice. At 2 h post-infection, mice (n = 6) were administered intraperitoneally (i.p.) with peptides at 2.5, 5, or 10 mg/kg. Mice raised without any treatment, or treated with PBS, 10 mg/kg DLP4, or vancomycin were used as the blank and negative and positive controls, respectively. At 24 h post-infection, peripheral blood was collected and serum was separated for cytokine levels analysis by using enzyme-linked immunosorbent assay (ELISA) kit (R&D systems, United States). Mice were euthanized, the right thighs were aseptically removed and processed for colonies counting ([Ling et al., 2015]).

IL-10 = experiment: Mouse thigh infection model, serum cytokine ELISA; type: in vivo, mouse (female CD-1); settings: 10 mg/kg i.p., serum 24 h post-infection
Description: as §2, §3

IL-6 = experiment: Mouse thigh infection model, serum cytokine ELISA; type: in vivo, mouse (female CD-1); settings: 10 mg/kg i.p., serum 24 h post-infection
Description: as §2, §3

TNF-α = experiment: Mouse thigh infection model, serum cytokine ELISA; type: in vivo, mouse (female CD-1); settings: 10 mg/kg i.p., serum 24 h post-infection
Description: as §2, §3

S. aureus CVCC 546 [11] = experiment: Potassium ion (K+) leakage; type: cell-based, Staphylococcus aureus; settings: 1 × MIC, treated for 150 min, 0.9% saline, 10^8 CFU/mL, ICP, n = 3
Description: To further investigate the effects of peptides on membrane integrity, K^+ leakage determination was carried out as previously described ([Miao et al., 2016]). Briefly, S. aureus CVCC 546 cells were centrifuged, washed, and resuspended in 0.9% sterile saline. The cell suspension (10^8 CFU/mL) was treated with peptides at 1 × MIC. Cells untreated and treated with DLP4 or nisin were used as blank and positive controls. At time intervals of 30, 60, 90, 120, and 150 min, the suspensions were centrifuged at 12000 rpm for 5 min. The supernatants were then subjected to measurement by Agilent inductively coupled plasma optical emission (ICP-OES).

S. aureus ATCC 43300 = type: cell-based, Staphylococcus aureus; settings: microtiter, serial 2-fold dilutions, 37°C, 16∼20 h, triplicate; – = no activity
Summary of the method: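 Test peptides were serially diluted 2-fold in microtiter wells holding the same bacterial inoculum and incubated at 37°C for 16∼20 h. MIC was taken as the lowest peptide concentration with no visible growth; vancomycin served as control, and tests were run in triplicate.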

## CN[C@H](CC(C)C)C(=O)N[C@H]1C(=O)N[C@@H](CC(N)=O)C(=O)N[C@H]2C(=O)N[C@H]3C(=O)N[C@H](C(=O)N[C@H](C(=O)O)c4cc(O)cc(O)c4-c4cc3ccc4O)[C@H](O)c3ccc(c(Cl)c3)Oc3cc2cc(c3O[C@@H]2O[C@H](CO)[C@@H](O)[C@H](O)[C@H]2O[C@H]2C[C@](C)(N)[C@H](O)[C@H](C)O2)Oc2ccc(cc2Cl)[C@H]1O [Vancomycin]
[1]; Staphylococcus aureus, CVCC546, 20 h
  MIC: 0.67 µM and 1 µg/mL
[2]
  MIC: 0.67 µM and 1 µg/mL
S. suis CVCC 3928
  MIC: 0.17 µM and 0.25 µg/mL
[3]
  MIC: 86.2 µM and 128 µg/mL
[4]
  MIC: 86.2 µM and 128 µg/mL
[5]
  MIC: 0.34 µM and 0.5 µg/mL
E. coli K88
  MIC: 43.1 µM and 64 µg/mL
S. enteritidis CVCC 3377
  MIC: 86.2 µM and 128 µg/mL
Mouse erythrocytes
  hemolysis: 0.54%
[6]
  cell viability: 85.8%
S. aureus CVCC 546 [7]
  percentage of PI-positive cells: 5.1%
S. aureus CVCC 546 [8]
  decrease of CFU counts within 1 h: 0.22 log10 CFU/mL
S. aureus CVCC 546 [9]
  PAE: 1.36 ± 0.20 h
S. aureus CVCC 546 [10]
  reduction of S. aureus in infected thigh muscles: 0.77 log10 (CFU/g)
IL-10
  downregulation of serum level of IL-10: 15.82 pg/mL
IL-6
  downregulation of serum level of IL-6: 497.48 pg/mL
TNF-α
  downregulation of serum level of TNF-α: 1052.98 pg/mL

## nisin (ITSISLCTPGCKTGALMGCNMKTATCHCSIHVSK; also: lantibiotic: thioether rings and dehydro residues not placed; UniProt P13068 24-57, looked up) [positive control in K+ leakage assay]
S. aureus CVCC 546 [11]
  level of released K+: 1.03 mg/L

## CC[C@H](C)[C@@H]1NC(=O)[C@@H]2CSSC[C@@H](C(=O)N[C@@H](CCCNC(=N)N)C(=O)N[C@@H](CCCCN)C(=O)O)NC(=O)[C@H](CC(N)=O)NC(=O)[C@@H]3CSSC[C@H](NC(=O)[C@H](C)NC(=O)[C@H](C)NC(=O)[C@H](Cc4c[nH]cn4)NC(=O)CNC(=O)[C@H](C(C)C)NC(=O)[C@H](CCCCN)NC(=O)[C@H](Cc4ccccc4)NC(=O)[C@@H]4CCCN4C(=O)[C@H](CO)NC(=O)[C@H](CC(C)C)NC(=O)[C@H](CC(C)C)NC(=O)[C@H](CC(=O)O)NC(=O)[C@@H](NC(=O)[C@@H](NC(=O)[C@H](C)N)[C@@H](C)O)CSSC[C@H](NC(=O)[C@H](Cc4c[nH]c5ccccc45)NC(=O)CNC(=O)CNC(=O)[C@H](CCCNC(=N)N)NC(=O)[C@H](CCCCN)NC(=O)CNC(=O)[C@H](CCCNC(=N)N)NC(=O)[C@H](C)NC1=O)C(=O)N[C@@H](CC(=O)O)C(=O)N[C@@H](CCCCN)C(=O)N[C@@H](CCCNC(=N)N)C(=O)N[C@@H](C)C(=O)N[C@@H](C(C)C)C(=O)N3)C(=O)N[C@@H](C)C(=O)N[C@@H](C(C)C)C(=O)N[C@@H](Cc1c[nH]cn1)C(=O)N2 [ID28] (HELM PEPTIDE1{A.T.C.D.L.L.S.P.F.K.V.G.H.A.A.C.A.V.H.C.I.A.R.G.K.R.G.G.W.C.D.K.R.A.V.C.N.C.R.K}$PEPTIDE1,PEPTIDE1,3:R3-30:R3|PEPTIDE1,PEPTIDE1,16:R3-36:R3|PEPTIDE1,PEPTIDE1,20:R3-38:R3$$$V2.0; N-terminus and C-terminus assumed; bridges inferred)
S. aureus ATCC 43300
  A1 (MIC against S. aureus ATCC 43300): 8 µg/mL
[1]; Table 1, – = no activity
  MIC: 16
